Measurements: US12018267B2, “Plants having increased tolerance to herbicides” (BASF SE, priority 2015, dated 2024)

Tested on: transgenic Arabidopsis plants with wildtype or mutated cellulose synthase sequences (SEQ ID NO: 1 or 3)
Assay: 48-well plate growth inhibition of transgenic T2 Arabidopsis, relative tolerance rates versus non-transgenic (Table E2-1)
Format: in vivo, Arabidopsis thaliana
Conditions: growth inhibition evaluated seven to ten days after seeding
Excerpt: For transformation of Arabidopsis thaliana, wildtype or mutated cellulose synthase sequences encoding for one of the following protein sequences SEQ ID NO: 1 or 3, are cloned with standard cloning techniques as described in Sambrook et al. (Molecular cloning (2001) Cold Spring Harbor Laboratory Press) in a binary vector containing resistance marker gene cassette (AHAS) and mutated cellulose synthase sequence (marked as GOI) in between ubiquitin promoter (PcUbi) and nopaline synthase terminator (NOS) sequence. Binary plasmids are introduced to Agrobacterium tumefaciens for plant transformation. Arabidopsis thaliana are transformed with wildtype or mutated cellulose synthase sequences by floral dip method as described by McElver and Singh (WO 2008/124495). Transgenic Arabidopsis plants are subjected to TaqMan analysis for analysis of the number of integration loci.
Transgenic Arabidopsis thaliana plants (T2) are assayed for improved tolerance to azine herbicides like e. g. 6-cyclopentyl-N4-(2,3,4,5,6-pentafluorophenyl)-1,3,5-triazine-2,4-diamine in 48-well plates. Therefore, T2 seeds are surface sterilized by stirring for 5 min in ethanol+water (70+30 by volume), rinsing one time with ethanol+water (70+30 by volume) and two times with sterile, deionized water. The seeds are resuspended in 0.1% agar dissolved in water (w/v) Four to five seeds per well are plated on solid nutrient medium consisting of half-strength murashige skoog nutrient solution, pH 5.8 (Murashige and Skoog (1962) Physiologia Plantarum 15: 473-497). Compounds are dissolved in dimethylsulfoxid (DMSO) and added to the medium prior solidification (final DMSO concentration 0.1%). Multi well plates are incubated in a growth chamber at 22° C., 75% relative humidity and 110 μmol Phot*m^−2*s^−1 with 14:10 h light:dark photoperiod. Growth inhibition is evaluated seven to ten days after seeding in comparison to wild type plants. Tolerance factors are calculated based on IC50 values of growth inhibition of transformed versus non-transformed Arabidopsis plants.

In the case of `Nc1nc(Nc2c(F)c(F)c(F)c(F)c2F)nc(C2CCCC2)n1` [6-cyclopentyl-N4-(2,3,4,5,6-pentafluorophenyl)-1,3,5-triazine-2,4-diamine], the “Relative tolerance rate of transgenic Arabidopsis plants as compared to non-transgenic (non-transgenic = 1.0)” value (“Relative tolerance rate … (non-transgenic = 1.0)” below) (Construct AtCesA1_G1031R, SEQ ID 1, variant G1031R) is reported as 7, the “Relative tolerance rate … (non-transgenic = 1.0)” value (Construct AtCesA1_L1011A, SEQ ID 1, variant L1011A) is reported as 3 and the “Relative tolerance rate … (non-transgenic = 1.0)” value (Construct AtCesA1_R292H, SEQ ID 1, variant R292H) is reported as 3. The “Relative tolerance rate … (non-transgenic = 1.0)” value (Construct AtCesA1_V297M, SEQ ID 1, variant V297M) was 1, the “Relative tolerance rate … (non-transgenic = 1.0)” value (Construct AtCesA1_wt, SEQ ID 1, no variant) was 1 and the “Relative tolerance rate … (non-transgenic = 1.0)” value (Construct AtCesA3_F1039L, SEQ ID 3, variant F1039L) was 3. The “Relative tolerance rate … (non-transgenic = 1.0)” value (Construct AtCesA3_wt, SEQ ID 3, no variant) was 1.
